Measurements: US5922677A, “Therapeutic method and compounds of use therein” (Auckland UniServices Limited, priority 1994, dated 1999)
Structures can show the parent of a compound that is named as a salt. No end group written: not given here.

Columns and labels:
[1] = tested on: osteoblast-like cells from fetal rat calvariae; experiment: Numbers of osteoblast-like cells in culture; type: cell-based; settings: for effect on cell number (osteoblast proliferation): growth-arrested cultures, 24 hours
Excerpt: Cells were either (a) growth-arrested as a result of being cultured in the presence of 0.1% bovine serum albumin or (b) were actively growing in culture medium containing 2% fetal calf serum. n=6 in each group. Data are mean ± sem. Statistical significance (by Student's test) of differences from control: *p≤0.05; **p<0.005; ***p<0.001.

calvariae of adult mice = experiment: In vivo calvarial study, local injection over hemicalvaria, histomorphometry; settings: 4.1×10^-9 mol daily for 5 days over right hemicalvaria
Excerpt: FIG. 4 Comparison of the in vivo effects of rat amylin, rat calcitonin (CT) and rat CGRP in adult mice. The daily dose of each peptide was 4.1×10^-9 mol. Data are expressed as the ratio of each index measured in the injected hemicalvaria to that measured in the contralateral, uninjected hemicalvaria. n=5 in each group. Data are mean ± sem. Significant differences (p<0.05) between the injected and uninjected hemicalvariae are indicated by asterisks.
The effects of the peptides on bone histology in vivo were assessed by subcutaneously injecting the peptide daily for 5 days over the periosteum of the right hemicalvaria of adult, male Swiss-Webster mice. The animals were sacrificed 1 week following the last injection. Non-decalcified sections of the calvariae were prepared as described previously, Cornish, J., Callon, K., King, A., Edgar, S., and Reid, I. R. (1993) Endocrinology 132, 1359-1366. Quantitative histomorphometry was performed by an operator blinded to the treatment each animal had received. Data are expressed as the ratio of each index measured in the injected hemicalvaria to that measured in the contralateral, uninjected hemicalvaria of the same animal and have been evaluated by paired t tests.

[2] = tested on: osteoblast-like cells from fetal rat calvariae; experiment: Thymidine incorporation into osteoblast-like cells; type: cell-based; settings: time-course (FIG. 3), medium with 0.1% bovine serum albumin
Method: FIG. 3 The effect of rat amylin on thymidine incorporation into osteoblast-like cells from fetal rat calvariae. Statistical significance of differences from control at each time-point: *p=0.002; **p<0.001. In both experiments the culture medium contained 0.1% bovine serum albumin. n=6 in each group. Data are mean ± sem.
Osteoblast-like cells were prepared by sequential collagenase digestion of calvariae from 20 day fetal rats, as described previously, Lowe, C., Cornish, J., Callon, K, Martin, T. J., and Reid, I. R. (1991) J. Bone Miner. Res. 6, 1277-1283.

[3] = tested on: osteoblast-like cells from fetal rat calvariae; experiment: Numbers of osteoblast-like cells in culture; type: cell-based; settings: for Osteoblast Numbers after 24 h culture: mean ± SD
mouse calvaria = experiment: Systemic in vivo experiment, calvarial histomorphometry; set-up: species or system mice
Method: We have also conducted the following systemic in vivo experiment where amylin at a concentration of 10^-8 M is injected subcutaneously.
Calvarial Histomorphometry
11 mice in each treatment group.
Differences between control and amylin groups were statistically tested using an unpaired Student t test.
Measurements are recorded per mm calvarial length.

[4] = injected vs uninjected hemicalvaria
[5] = systemic test, summary in words

## O=C(O)C(F)(F)F [TFA, trifluoroacetic acid]
[1]; 4×10^-8 M, exposed for 24 hrs, control 5.6±0.3×10^4
  cell numbers: 4.2±0.3×10^4

## amylin: 37-amino acid peptide cosecreted with insulin from pancreatic beta cells; species not printed at place (rat amylin per FIG. 1-4 legends)
Calvariae of adult mice; [4]
  bone resorption: decreases in bone resorption of comparable magnitude
  indices of bone formation: two- to three-fold increases
[2]
  DNA synthesis assessed by thymidine incorporation: sustained increase in DNA synthesis
[1]; actively growing cells (2% fetal calf serum, FIG. 1b)
  stimulation of osteoblast proliferation: also observed in actively growing cells
[1]; dose-response (FIG. 1a)
  effect on cell number (osteoblast proliferation): substantial, dose-related increase in cell number
[3]; time-course 6 to 48 hours (FIG. 2)
  cell number over time: increased in amylin-treated cells from 6 to 48 hours
Mouse calvaria; [5]
  indices of bone formation compared to control: significant increases in all indices of bone formation
  indices of bone resorption compared to control: significant decreases in indices of bone resorption
Mouse calvaria; systemic, subcutaneous, 10^-8 M, mean, per mm calvarial length, control 0.0005
  osteoid area: 0.0018 mm^2
Mouse calvaria; systemic, subcutaneous, 10^-8 M, mean, per mm calvarial length, control 0.094
  osteoclast surface: 0.019 mm
Mouse calvaria; systemic, subcutaneous, 10^-8 M, mean, per mm calvarial length, control 0.294
  eroded surface: 0.081 mm
Mouse calvaria; systemic, subcutaneous, 10^-8 M, mean, per mm calvarial length, control 0.85
  osteoblast surface: 1.76 mm
Mouse calvaria; systemic, subcutaneous, 10^-8 M, mean, per mm calvarial length, control 3.6
  osteoclast number: 1.2
Mouse calvaria; systemic, subcutaneous, 10^-8 M, mean, per mm calvarial length, control 73.6
  osteoblast number: 147.5

## parathyroid hormone
[1]; 10^-8 M, at 24 hours
  reduced cell numbers: 18%

## CGRP: rat calcitonin gene-related peptide-1, a peptide related to amylin (SCNTATCVTHRLAGLLSRSGGVVKDNFVPTNVGSEAF; not fully specified (C-terminus, bridges); cysteine pairing not given here; UniProt P01256 83-119, looked up)
[1]; dose-response (FIG. 1a)
  effect on cell number (osteoblast proliferation): increased osteoblast proliferation, but the effect was smaller and only significant at 10^-8 M

## salmon calcitonin
[1]; 10^-7 M
  effect on cell number (osteoblast proliferation): without effect

## Amylin, TFA Salt: amylin as trifluoroacetic acid salt, generally the tetra-TFA salt, as isolated by HPLC (KCNTATCATQRLANFLVHSSNNFGAILSSTNVGSNTY; not fully specified (C-terminus, bridges); cysteine pairing not given here; also: trifluoroacetate salt; UniProt P10997 34-70, looked up)
[3]; 10^-8 M, control 4.6 ± 0.64
  Osteoblast Numbers after 24 h culture: 5.6 ± 0.96 10^4 cells/well

## rat amylin: rat form of the 37-amino acid peptide amylin (KCNTATCATQRLANFLVRSSNNLGPVLPPTNVGSNTY; not fully specified (C-terminus, bridges); cysteine pairing not given here; UniProt P12969 38-74, looked up)
[3]; 10^-9 M, control 4.2 ± 0.6
  Osteoblast Numbers after 24 h culture: 5.9 ± 0.8 x10^4 cells/well

## Amylin, chloride salt: amylin salt prepared by dissolving peptide in 3 mM hydrochloric acid and freeze-drying (KCNTATCATQRLANFLVHSSNNFGAILSSTNVGSNTY; not fully specified (C-terminus, bridges); cysteine pairing not given here; also: chloride salt; UniProt P10997 34-70, looked up)
[3]; 10^-8 M, control 4.6 ± 0.64
  Osteoblast Numbers after 24 h culture: 7.9 ± 1.00 10^4 cells/well

## Rat calcitonin: rat calcitonin peptide, comparator (CGNLSTCMLGTYTQDLNKFHTFPQTSIGVGAP; ends and bridges not checked; cysteine pairing not given here; UniProt P01257 85-116, looked up) [reference compound]
Calvariae of adult mice
  eroded surface: reduced eroded surface to a similar extent to amylin
Calvariae of adult mice; non-significant
  mineralized bone area increase: 4%
[1]; 10^-9 -10^-7 M
  effect on cell number (osteoblast proliferation): without effect
